Series [1] can be described thus: Photostability test, sunlight exposure. Format: physicochemical. Conditions: 80 MJ/m^2. How it is done:
A solution of the ultraviolet absorbent of the present invention was exposed to sunlight for two weeks (sunlight exposure level 80 MJ/m^2) and then the residual ratio and changes in the appearance were investigated and the ultraviolet absorption spectrum was measured (solvent: water, concentration 10 ppm, optical path length 1 cm) by using a spectrophotometer; the ultraviolet absorption spectrum was integrated over a range of 290-400 nm to obtain the area value, which was compared with the value before the sunlight exposure.
Changes in the residual ratio and the area value of the ultraviolet absorption spectrum were evaluated based on the following criteria.
Δ: 70% or more and less than 90% of the value before the sunlight exposure.
X: Less than 70% of the value before the sunlight exposure.

Series [2] can be described thus: Ultraviolet absorption spectrum measurement. Type of series: physicochemical. Conditions: solvent water, concentration 10 ppm, optical path length 1 cm, FIG. 1. The protocol:
An ultraviolet absorption spectrum of the benzilidene malonamide obtained in Example 1 was measured (solvent: water, concentration 10 ppm, optical path length 1 cm) by using a spectrophotometer (V-560 from Jasco Co. Ltd.).

Series [3] in a line: External appearance and low temperature storage of lotion and cream samples. Format: physicochemical. How it is done: (§1) (a) lotion and (b) cream were prepared according to the following recipes. For the ultraviolet absorbent, benzilidene malonamide (bis-N,N′-[2-(2-hydroxyethoxy)ethyl]-4-methoxybenzilidene malonamide) of the present invention and, as a Comparison example, a water soluble ultraviolet absorbent sodium 2-hydroxy-4-methoxy-5-sulfoquisonium benzophenone were used.
(§2) The water phase and the alcohol phase were separately prepared and then mixed together.
(§3) Propylene glycol and the ultraviolet absorbent were dissolved in ion-exchanged water and the temperature was raised to 70° C. and maintained. The other ingredients were mixed, heated and melted, and the temperature was maintained at 70° C. (oil phase). The oil phase was added to the water phase and pre-emulsification was conducted; after a homomixer was used to emulsify the mixture homogeneously, the temperature was cooled down to 30° C. while thorough stirring was maintained.

Series [4] is described as follows: Solubility in water. Type of series: physicochemical. How it is done:
Solubility in water was measured for the benzilidene malonamide of the present invention. For a Comparative example, sodium 2-hydroxy-4-methoxy-5-sulfoquisonium benzophenone was measured in the same manner.

The nature of series [5]: 405 nm visible light absorbance measurement. Format: physicochemical. To be noted: water, optical path length 1 cm. The protocol:
For a Comparative example, sodium 2-hydroxy-4-methoxy-5-sulfoquisonium benzophenone, a conventional water soluble ultraviolet absorbent, was measured in the same manner.

In series [6] the test system is flexor forearm skin of healthy male and female volunteers. Nature of the series: Skin irritability test, 24-hour closed patch test. Format: in vivo, human. Conditions: ultraviolet absorbent 10 wt %, 20 volunteers. How it is done:
This test was conducted by using the same sample as in Test example 4 (blend ratio of the ultraviolet absorbent was 10 wt %).
A Finn chamber was used to conduct the 24-hour closed patch test on the flexor forearm of healthy male and female volunteers; a group of 20 volunteers were used and the following evaluation criteria were used.
The average score was calculated and the evaluation was done based on the following criteria.
⊚: The average score is 0.
◯: The average score is more than 0 and less than 1.
Δ: The average score is 1 or more and less than 2.
X: The average score is 2 or more.

The test system of series [7] is degree of sunburn after exposure to direct sunlight. In words: Ultraviolet prevention effect, actual use test on a beach in summer. Format: in vivo, human. The protocol:
An actual use test was conducted on a beach in summer. The same amount of sample was applied on the left and right halves of panelists' backs. The degree of sunburn after exposure to direct sunlight was evaluated based on the following criteria. The test was conducted with a group of 10 panelists.
Very effective: No or very little sunburn symptoms were observed.
Effective: A mild degree of sunburn symptoms were observed.
Not effective: A strong degree of sunburn symptoms were observed.
⊚: 80% or more of the subjects report “very effective” or “effective.”
◯: 50% or more and less than 80% of the subjects report “very effective” or “effective.”
∇: 30% or more and less than 50% of the subjects report “very effective” or “effective.”
X: Less than 30% of the subjects report “very effective” or “effective.”
as §1, §2, §3

Series [8] can be described thus: Stability test for use in combination with an inorganic powder ultraviolet shielding agent. To be noted: sunscreen cream with inorganic powders, ultraviolet absorbent 10.0 wt %, stored at 50° C. for two months, visual. Format: physicochemical.
Method: Sunscreen cream was prepared according to the following recipe; it was stored at 50° C. for two months and visually observed for discoloration to investigate the stability when used in combination with an inorganic powder ultraviolet shielding agent.

With `COc1ccc(C=C(C(=O)NCCOCCO)C(=O)NCCOCCO)cc1` [Benzilidene malonamide of formula (1), bis-N,N′-[2-(2-hydroxyethoxy)ethyl]-4-methoxybenzilidene malonamide], the “Changes in the area value of the ultraviolet absorption spectrum” value in series [1] (290-400 nm integrated, after sunlight for two weeks, water, 10 ppm, 1 cm) is listed as “⊚ (95% or more of the value before the sunlight exposure.)”. For the same molecule, the Residual ratio result in series [1] (solution exposed to sunlight for two weeks) is reported as “⊚ (95% or more of the value before the sunlight exposure.)”. Also, in series [2], the “Ultraviolet absorption spectrum (absorption capacity)” value was “superior absorption capacity over a wide ultraviolet wavelength region”. For the same molecule, the External appearance result in series [3] ((b) Cream, blend ratio 1) is given as “White”; in series [3] ((b) Cream, blend ratio 5) it was “White”; in series [3] ((b) Cream, blend ratio 10) it was “White”. In series [3] (external preparations of Tables 3 and 4 (lotion and cream)), the “Precipitation during low temperature storage” value is on record as “no precipitation of the ultraviolet absorbent was observed at all”. Besides, in series [4], the “Solubility (room temperature)” value is listed as 30 or more wt %. The Absorbance in series [5] (concentration 10 wt %) amounted to 0. For the same molecule, the “Skin irritability patch test evaluation (average score)” value in series [6] (Cream) and in series [6] (Lotion) was “⊚ (The average score is 0.)” in each case. For the same molecule, the Ultraviolet prevention effect entry was “⊚ (80% or more of the subjects report “very effective” or “effective.”)” in series [7] ((a) Lotion, blend ratio 1, 10 panelists); “⊚ (80% or more of the subjects report “very effective” or “effective.”)” in series [7] ((a) Lotion, blend ratio 5, 10 panelists); “⊚ (80% or more of the subjects report “very effective” or “effective.”)” in series [7] ((a) Lotion, blend ratio 10, 10 panelists); “⊚ (80% or more of the subjects report “very effective” or “effective.”)” in series [7] ((b) Cream, blend ratio 1, 10 panelists); “⊚ (80% or more of the subjects report “very effective” or “effective.”)” in series [7] ((b) Cream, blend ratio 5, 10 panelists); “⊚ (80% or more of the subjects report “very effective” or “effective.”)” in series [7] ((b) Cream, blend ratio 10, 10 panelists). Also, the Discoloration result in series [8] was “None”.

Take `COc1cc(O)c(C(=O)c2ccccc2)cc1S(=O)(=O)[O-].[Na+]` [sodium 2-hydroxy-4-methoxy-5-sulfoxonium benzophenone, reference compound]: the “Precipitation during low temperature storage” value in series [3] ((a) Lotion, blend ratio 5) is listed as “**Crystals precipitated during low temperature storage”; in series [3] ((b) Cream, blend ratio 5) it was “**Crystals precipitated during low temperature storage”. For the same molecule, the External appearance result was “Yellow” in series [3] ((b) Cream, blend ratio 1) and “Yellow**” in series [3] ((b) Cream, blend ratio 5). For the same molecule, the values for the Absorbance in series [5] (concentration 0.1 wt %), in series [5] (concentration 1 wt %) and in series [5] (concentration 6 wt %) were 0.06, 0.32 and 1.99, respectively.
